In publication PMC10111423, “Antimalarial Imidazopyridines Incorporating an Intramolecular Hydrogen Bonding Motif: Medicinal Chemistry and Mechanistic Studies” (ACS Infectious Diseases, 2023):

Experiment: Metabolite identification in mouse liver microsomes
Assay type: in vitro ADME
Conditions: NADPH-dependent
Procedure: started by addition of NADPH (1 mM) as cofactor and shaken for 30 minutes at 37 °C. The
reactions were then quenched by adding 300 µL of ice-cold acetonitrile containing internal
standard (carbamazepine, 0.0236 µg/mL) and centrifuged. The supernatant was transferred to
a fresh 96-well plate and analysed by LC-MS/MS (Agilent Rapid Resolution HPLC, AB
SCIEX 4500 MS). The relative loss of parent compound over time was monitored and plots
(concentration vs. time) were prepared per compound to determine the first order rate constant
for compound depletion. This was in turn used to calculate half-life, in vitro intrinsic clearance
and in vivo hepatic extraction ratio.6
Metabolite Identification Studies
The test compound (10 µM) was incubated at 37 °C in a solution containing 1 mg/ml
microsomes (MLM, male mouse CD1, Lot No. 1510043, Xenotech), magnesium chloride (5
mM) and NADPH (1 mM) in sodium phosphate buffer (100 mM, pH 7.4) for 60 minutes while
shaking. The samples were then prepared by ice-cold acetonitrile precipitation, centrifuged,
and filtered for LC-MS/MS analysis.
Controls containing all the sample constituents (not incubated), and in which NADPH,
microsomes or the test compound were individually excluded were also prepared and handled
similarly to the test sample. Verapamil (10 µM) was incubated concomitantly as a positive
Fluorescence Live-cell Microscopy […]

Number of metabolites identified: 4
SMILES: CCN(CCNc1cc2[nH]c(-c3cccc(C(F)(F)F)c3)nc2cn1)Cc1ccc(Cl)cc1O [Compound 14, 5-Chloro-2-((ethyl(2-((2-(3-(trifluoromethyl)phenyl)-1H-imidazo[4,5-c]pyridin-6-yl)amino)ethyl)amino)methyl)phenol]
